pIC50: −log10 of the molar value.
What was measured:
[1] = molecular target: horse butyxylcholinesterase (Equus caballus, UniProt P81908); test: biochemical
[2] = molecular target: electric eel AChE (Electrophorus electricus, UniProt O42275); test: biochemical
[3] = Solubility in water of isolated compounds

electric eel AChE, sequence (O42275 24-633): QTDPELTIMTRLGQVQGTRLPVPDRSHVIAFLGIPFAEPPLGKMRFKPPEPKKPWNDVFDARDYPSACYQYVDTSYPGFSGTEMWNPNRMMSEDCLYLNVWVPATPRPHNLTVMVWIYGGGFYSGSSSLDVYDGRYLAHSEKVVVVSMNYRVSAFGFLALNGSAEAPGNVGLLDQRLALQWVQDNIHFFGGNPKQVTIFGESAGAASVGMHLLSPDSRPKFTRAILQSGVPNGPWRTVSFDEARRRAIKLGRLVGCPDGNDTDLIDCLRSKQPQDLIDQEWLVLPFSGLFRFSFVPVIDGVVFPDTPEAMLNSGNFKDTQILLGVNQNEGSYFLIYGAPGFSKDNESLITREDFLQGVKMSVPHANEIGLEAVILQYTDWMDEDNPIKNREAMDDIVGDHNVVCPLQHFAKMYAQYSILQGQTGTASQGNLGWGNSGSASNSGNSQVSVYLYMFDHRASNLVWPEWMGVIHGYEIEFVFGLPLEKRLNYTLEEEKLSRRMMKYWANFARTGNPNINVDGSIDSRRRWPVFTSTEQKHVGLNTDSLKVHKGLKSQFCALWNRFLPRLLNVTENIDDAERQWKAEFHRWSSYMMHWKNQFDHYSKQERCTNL
horse butyxylcholinesterase, sequence (P81908 whole entry): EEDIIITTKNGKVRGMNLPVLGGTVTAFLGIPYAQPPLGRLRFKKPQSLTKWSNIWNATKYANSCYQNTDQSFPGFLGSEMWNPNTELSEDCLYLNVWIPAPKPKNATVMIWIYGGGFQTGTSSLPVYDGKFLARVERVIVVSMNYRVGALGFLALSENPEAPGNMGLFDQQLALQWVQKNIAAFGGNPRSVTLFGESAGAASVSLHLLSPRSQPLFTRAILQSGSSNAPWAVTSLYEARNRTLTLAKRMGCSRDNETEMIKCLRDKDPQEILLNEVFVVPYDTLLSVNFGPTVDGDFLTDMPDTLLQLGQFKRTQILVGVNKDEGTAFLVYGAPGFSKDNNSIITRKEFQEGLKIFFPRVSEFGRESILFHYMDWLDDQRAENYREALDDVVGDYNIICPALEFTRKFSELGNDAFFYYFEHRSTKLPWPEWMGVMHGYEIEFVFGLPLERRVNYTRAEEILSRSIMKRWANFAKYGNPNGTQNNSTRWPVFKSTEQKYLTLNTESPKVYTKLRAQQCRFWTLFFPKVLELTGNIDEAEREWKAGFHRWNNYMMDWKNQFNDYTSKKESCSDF

Row | SMILES | pIC50 [1] | pIC50 [2] | Solubility in water [3]
1 | C=C(C)[C@@H]1CC[C@]2(CO)CC[C@]3(C)[C@H](CC[C@@H]4[C@@]5(C)CC[C@H](O)C(C)(C)[C@@H]5CC[C@]43C)[C@@H]12 [Compound 1, betulin] | 4.98 | 5.70 | 
2 | CC(C)[C@H](C)CC[C@@H](C)[C@H]1CC[C@H]2[C@@H]3CC=C4C[C@@H](O)CC[C@]4(C)[C@H]3CC[C@]12C [Compound 2, campesterol] | 4.99 | 5.33 | Soluble

Reference: article PMC5546590 (Biologics : Targets & Therapy, 2017)
